The structures appear in SMILES notation. Counter-ions that a name gives are not always drawn.

For this test, the target named is T1, recombinant human NR2F6 protein (Homo sapiens, UniProt P10588).
T1 sequence (P10588 1-404): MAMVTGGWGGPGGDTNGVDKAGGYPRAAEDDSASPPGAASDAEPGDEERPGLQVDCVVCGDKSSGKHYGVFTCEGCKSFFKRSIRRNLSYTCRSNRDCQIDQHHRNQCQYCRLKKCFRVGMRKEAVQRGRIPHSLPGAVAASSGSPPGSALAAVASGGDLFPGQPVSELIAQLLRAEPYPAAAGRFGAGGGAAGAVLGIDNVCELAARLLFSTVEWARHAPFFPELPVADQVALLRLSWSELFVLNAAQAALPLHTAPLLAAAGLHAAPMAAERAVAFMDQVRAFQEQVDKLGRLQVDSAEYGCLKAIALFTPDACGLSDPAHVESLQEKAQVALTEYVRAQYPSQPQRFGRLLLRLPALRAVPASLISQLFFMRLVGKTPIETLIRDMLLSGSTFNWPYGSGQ
Description: Biochemical NR2F6 binding assay (EnSpire label-free). The conditions noted are these: label-free binding to immobilized purified recombinant human NR2F6; ligands 1 nM to 100 uM, 1% DMSO. In short, it runs like this:
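Recombinant human NR2F6 was immobilized at pH 4.5 (50 μg/well, 16 h, 4° C) on label-free biosensor plates. Ligands were tested from 1 nM to 100 uM in 1% DMSO, with readings over 30 minutes. Binding was measured as reflected-wavelength shift (pm), and EC50 was derived from concentration-response curves.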
Take `O=C(Nc1cccnc1)[C@H]1CNC[C@@H]1c1ccccc1` (racemic) [Compound I-19, (±)-trans-4-Phenyl-N-(pyridin-3-yl)pyrrolidine-3-carboxamide dihydrochloride]: the EC50 was > 50 µM.
As to `c1ccc([C@H]2CNC[C@@H]2Oc2cccc3cnccc23)cc1` (racemic) [Compound I-64, 5-{[(±)-trans-4-Phenylpyrrolidin-3-yl]oxy}isoquinoline dihydrochloride], the 50% effective concentration (EC50) was in the range of 1 to 10 µM.
The result for `O=C(Nc1ccc(-c2cccnc2)cc1)[C@@H]1CNC[C@H]1c1ccccc1` [Compound I-41, (3S,4R)-4-Phenyl-N-[4-(pyridin-3-yl)phenyl]pyrrolidine-3-carboxamide dihydrochloride] reads 1 to 10 µM; that for `O=C(Nc1csc2cnccc12)[C@H]1CNC[C@@H]1c1ccccc1` [Compound I-32, (3R,4S)-4-Phenyl-N-(thieno[2,3-c]pyridin-3-yl)pyrrolidine-3-carboxamide dihydrochloride], 1 to 10 µM; that for `c1ccc([C@@H]2CNC[C@H]2Oc2nc(-c3cccnc3)cs2)cc1` (racemic) [Compound I-5, (±)-trans-3-{2-[(4-Phenylpyrrolidin-3-yl)oxy]-1,3-thiazol-4-yl}pyridine], 1 to 10 µM.
The result for `O=C(Nc1cccc(Oc2ccc(C(F)(F)F)nc2)c1)[C@H]1CNC[C@@H]1c1ccccc1` [Compound I-119, 3R,4S)-4-Phenyl-N-(3-{[6-(trifluoromethyl)pyridin-3-yl]oxy}phenyl) pyrrolidine-3-carboxamide dihydrochloride] reads 1 to 10 µM; that for `O=C(Nc1cccc(Oc2ccc(C(F)(F)F)cc2)c1)[C@H]1CNC[C@@H]1c1ccccc1` (racemic) [Compound I-92, (±)-trans-4-Phenyl-N-{3-[4-(trifluoromethyl)phenoxy]phenyl}pyrrolidine-3-carboxamide hydrochloride], 1 to 10 µM.
Next, `O=C(Nc1cccc(Oc2ccc(C(F)(F)F)nc2)c1)[C@H]1CNC[C@@H]1c1ccccc1` (racemic) [Compound I-104, (±)-trans-4-Phenyl-N-(3-{[6-(trifluoromethyl)pyridin-3-yl]oxy}phenyl) pyrrolidine-3-carboxamide dihydrochloride]: < 1 µM; `COc1ccc([C@@H]2CNC[C@H]2C(=O)Nc2cccc(-c3ccccc3)c2)cc1` (racemic) [Compound I-45, (±)-trans-N-(Biphenyl-3-yl)-4-(4-methoxyphenyl)pyrrolidine-3-carboxamide hydrochloride]: > 50 µM.
`Cc1cc2c(NC(=O)[C@@H]3CNC[C@H]3c3ccccc3)cccc2cn1` (racemic) [Compound I-15, (±)-trans-N-(3-Methylisoquinolin-5-yl)-4-phenylpyrrolidine-3-carboxamide dihydrochloride]: the EC50 lay in the range of 1 to 10 µM.
For the compound `O=C(Nc1cccc(-c2cccnc2)c1)[C@@H]1CN(c2ccccc2)C[C@H]1c1ccccc1` (racemic) [Compound I-62, (±)-trans-1,4-Diphenyl-N-[3-(pyridin-3-yl)phenyl]pyrrolidine-3-carboxamide], the EC50 was < 1 µM.
Next, `O=C(Nc1ccc(Nc2cccnc2)cc1)[C@H]1CNC[C@@H]1c1ccccc1` (racemic) [Compound I-107, (±)-trans-4-Phenyl-N-[4-(pyridin-3-ylamino)phenyl]pyrrolidine-3-carboxamide dihydrochloride]: > 50 µM; `O=C(N[C@H]1C[C@H](Oc2ccc(F)cc2)C1)[C@H]1CNC[C@@H]1c1ccccc1` (racemic) [Compound I-91, (±)-trans-N-[trans-3-(4-Fluorophenoxy)cyclobutyl]-4-phenylpyrrolidine-3-carboxamide hydrochloride]: 1 to 10 µM; `O=C(Nc1cccc(OC2CCOCC2)c1)[C@@H]1CNC[C@H]1c1ccccc1` (racemic) [Compound I-86, (±)-trans-N-[3-(Tetrahydro-2H-pyran-4-yloxy)phenyl]-4-phenylpyrrolidine-3-carboxamide hydrochloride]: 1 to 10 µM.

For the origin of these results see US20220213061A9, “HETEROCYCLIC COMPOUNDS FOR MODULATING NR2F6” (TES Pharma S.r.l., priority 2020, published 2022).
